Test results published in US12648997B2, “Treatment of infections” (priority 2018, dated 2026).

How the values were obtained:
[1] = Stability of daptomycin in transient daptomycin-linker hydrogel conjugates versus free daptomycin; type: physicochemical; settings: pH 7.4, 37° C, at day seven; peak area ratio at 215 nm
Protocol: The relative stability of the covalently bound daptomycin in the transient daptomycin-linker hydrogel conjugates towards hydrolytic and other degradation pathways in comparison to free daptomycin was investigated. For that purpose, free daptomycin, transient daptomycin-linker HA-conjugate 5 and transient daptomycin-linker PEG-conjugate 9b were incubated at pH 7.4 and 37° C. The supernatants of the carrier samples were exchanged five times within a week and the daptomycin purity in these samples was analyzed by UPLC. In parallel, analytical samples of the free daptomycin control solution were also analyzed by UPLC at the same incubation times. The purity of daptomycin in the samples was calculated as the ratio of the peak area of the intact daptomycin peak at 215 nm relative to the area sum of all daptomycin-related peaks identified at 215 nm.

[2] = tested on: Methicillin-sensitive Staphylococcus aureus (MSSA) MN8 strain biofilms; assay: In vitro biofilm eradication study (Calgary Biofilm Device); type: cell-based; settings: TSB with 12 mg/mL BSA and 50 μg/mL calcium, 37° C, OD600
Protocol: This study was performed to investigate the daptomycin concentration required to fully eradicate biofilms when constantly exposed to daptomycin for one or three days. […] Biofilms were grown in tryptic soy broth (TSB) using a Methicillin-sensitive Staphylococcus aureus (MSSA) MN8 strain. Aliquots of a diluted culture of this bacterial strain in TSB, obtained from an inoculum of the respective strain on trypticase soy agar plates (TSA), were transferred to all but the negative control wells of flat-bottom 96-well microtiter plates. The bacterial biofilms were formed by immersing lids with pegs into the 96-well microtiter plates, followed by incubation for 24, 48 and 72 hours at 37° C. The differently aged biofilms were subsequently transferred into new microtiter plates using TSB media with addition of 12 mg/mL bovine serum albumin (BSA) and 50 μg/mL calcium as CaCl2. Daptomycin was added to the media as required to obtain concentrations of 2-1458 μg/mL. The plates were incubated for one or three days at 37° C. The biofilms were detached from the pegs by centrifugation, generating bacterial suspensions in the wells of the microtiter plates. The optical densities of these suspensions were measured (OD600) to determine the biofilm eradication concentrations. All measurements were performed in triplicates.

purity of the free daptomycin in the solution control sample [1]: 72%
SMILES: CCCCCCCCCC(=O)N[C@@H](Cc1c[nH]c2ccccc12)C(=O)N[C@H](CC(N)=O)C(=O)N[C@@H](CC(=O)O)C(=O)N[C@@H]1C(=O)NCC(=O)N[C@@H](CCCN)C(=O)N[C@@H](CC(=O)O)C(=O)N[C@H](C)C(=O)N[C@@H](CC(=O)O)C(=O)NCC(=O)N[C@H](CO)C(=O)N[C@@H]([C@H](C)CC(=O)O)C(=O)N[C@@H](CC(=O)c2ccccc2N)C(=O)O[C@@H]1C [daptomycin]
daptomycin concentration needed to fully eradicate biofilms ([2]; 24 hours exposure, biofilms of all ages (24, 48, 72 h)): 486 µg/mL
daptomycin concentration needed to fully eradicate biofilms ([2]; three days exposure): 162 µg/mL
